Reference: PMC3541007 (ChemMedChem, 2009)
Several values for one entry are separate records, joined by “and”; a condition that tells them apart may be missing. Equal values may be shown once. Read-outs that look alike come from different tables or passages of the source.

What was measured:
[1] = test system: M. tuberculosis clinical isolate 5071; assay type: cell-based; details: multi-drug resistant isolate, four weeks
[2] = test system: M. tuberculosis H37Rv inhA (S94A); assay type: cell-based, Mycobacterium tuberculosis
[3] = test system: M. tuberculosis clinical isolate 12081; assay type: cell-based; details: for MIC clinical isolate 12081: multi-drug resistant isolate, four weeks
[4] = test system: M. tuberculosis H37Rv ΔkatG; assay type: cell-based, Mycobacterium tuberculosis

| Compound | MIC clinical isolate 5071 [1] | MIC clinical isolate 5071 ([1]; value in parentheses) | MIC H37Rv inhA (S94A) [2] | MIC clinical isolate 12081 [3] | MIC clinical isolate 12081 ([3]; value in parentheses) | times less active against the ΔkatG mutant [4] | fold loss in potency versus InhA(S94A) strain compared to wild-type [2] | fold resistance of strain 12081 ([3]; MIC ratio vs wild-type strain) |
| --- | --- | --- | --- | --- | --- | --- | --- | --- |
| 5-n-butyltriclosan [Compound 10] | 4.7 µg/mL | 15 µM | 37 (120) µg/ml and 37 (120) µM | 37 µg/mL | 120 µM | – | – | – |
| NNC(=O)c1ccncc1 [INH, isoniazid] | – | – | 0.50 (3.6) µg/ml and 0.50 (3.6) µM | – | – | more than 3000 times | 8 fold | 17 fold |
